For orientation: pIC50 means the IC50 on a negative log10 scale, so that one unit is a factor of ten.

This passage reports IC50 results from patent US10597370B2, “2-(benzothiazol-2-yl)-2-cyano-acetamide derivatives and their use as endothelial lipase inhibitors” (BRISTOL-MYERS SQUIBB COMPANY, priority 2016, dated 2020).

pIC50: −log10 of the molar value.

The target in the experiment is T1, Endothelial lipase (EL) (Homo sapiens, UniProt Q9Y5X9).
T1 construct: transformed by RAGE technology (Athersys) to overexpress endogenous EL; endogenous in cells; the conditioned medium served as the enzyme source
T1 sequence (Q9Y5X9 21-500): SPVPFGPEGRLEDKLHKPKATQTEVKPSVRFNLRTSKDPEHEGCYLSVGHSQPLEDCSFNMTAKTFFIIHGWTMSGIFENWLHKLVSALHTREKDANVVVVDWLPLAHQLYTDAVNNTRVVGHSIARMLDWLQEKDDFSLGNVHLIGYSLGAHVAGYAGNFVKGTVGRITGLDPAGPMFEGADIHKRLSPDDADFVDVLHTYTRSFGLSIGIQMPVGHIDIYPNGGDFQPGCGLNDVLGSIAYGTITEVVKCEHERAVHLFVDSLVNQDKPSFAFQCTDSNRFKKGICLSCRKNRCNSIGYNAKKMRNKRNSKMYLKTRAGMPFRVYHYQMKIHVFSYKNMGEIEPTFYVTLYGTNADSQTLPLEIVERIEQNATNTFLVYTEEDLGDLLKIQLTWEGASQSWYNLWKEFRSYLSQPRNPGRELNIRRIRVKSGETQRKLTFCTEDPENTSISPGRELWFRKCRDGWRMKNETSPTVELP
Description: Endothelial lipase (EL) enzymatic assay with fluorescent substrate A10070 in DMPG vesicles. It is filed as biochemical. The following applies: conditioned media from HT-1080 cells overexpressing endogenous EL; 20 min preincubation at 37° C. The protocol:
Endothelial lipase activity was measured using a fluorescent substrate, A10070, (Invitrogen, CA) doped into an artificial vesicle containing DMPG (Avanti Polar Lipids) as the excipient. Vesicles were prepared by combining 285 μL of 1 mM DMPG in a 1:1 mixture of MeOH and CHCl3 with 15 μL of 1 mM A10070 in a 1:1 mixture of MeOH and CHCl3. The mixture was dried under nitrogen and resuspended in 150 μL of 50 mM HEPES pH 8.0 buffer containing 100 mM NaCl and 0.2 mM EDTA. The sample was allowed to sit at rt for 15 min and then was sonicated 3×4 mins on ice with a Branson Sonicator using duty cycle 1. This preparation provides vesicles with a mole fraction of 0.05 for the FRET substrate.
The enzymatic assay was measured using white, opaque 96-well half area plates. Each well contained 60 μL of assay buffer (50 mM HEPES pH 8.0, 50 mM NaCl and 1 mM CaCl2) and 2 ul of a DMSO solution containing compound of interest. Conditioned media obtained from HT-1080 cells, which were transformed by RAGE technology (Athersys) to overexpress endogenous EL, was added and the reaction was allowed to incubate for 20 min at 37° C. with gentle agitation. The reaction was started by the addition of 20 μL of a 1:4 dilution of vesicles. The final total reaction volume was 100 μL. The reaction rates were measured on a Gemini plate reader with an excitation wavelength of 488 nm and an emission of 530 nm. Readings were taken every 20 seconds for 10 min with agitation between each reading. The slope of the linear portion of the readout was used to calculate the rate of the reaction.
Turning to `N#CC(C(=O)NCC(=O)N1CCCC1)c1nc2ccc(-c3ccccc3)cc2s1` (stereo not drawn) [Example 18, 2-cyano-N-[2-oxo-2-(pyrrolidin-1-yl)ethyl]-2-(6-pheny1-1,3-benzothiazol-2-yl)acetamide], the pIC50 is 5.88.
The value for `N#CC(C(=O)NCC(=O)NC1CC1)c1nc2ccc(-c3cccc(C(N)=O)c3)cc2s1` (stereo not drawn) [Example 9, 3-{2-[cyano ({[(cyclopropyl-carbamoyl)methyl]carbamoyl})methyl]-1,3-benzothiazol-6-yl} benzamide] was 6.40; that for `N#CC(C(=O)NCC(=O)NC1CC1)c1nc2cc(-c3ccc(C(N)=O)cc3)c(F)cc2s1` (stereo not drawn) [Example 28, 4-{2-[cyano ({[(cyclopropyl-carbamoyl)methyl]carbamoyl})methyl]-6-fluoro-1,3-benzothiazol-5-yl}benzamide] was over 9.00.
